# Results from patent US12070448B2, “Use of carbamate compound for prevention, alleviation or treatment of status epilepticus” (SK BIOPHARMACEUTICALS CO., LTD., priority 2018, dated 2024).
# Tests used:
# [1] = test system: pilocarpine-induced status epilepticus; test: Pilocarpine-induced status epilepticus in mice; format: in vivo, mouse; details: for Mortality: 50 min
# Experimental: Male mice (C57BL/6, 21-24 g) were used. The experimental animals were housed under a 12-hour light/dark cycle (lighting from 7 pm to 7 am) and maintained at a temperature of 22-25° C. and about 40 to 60% relative humidity. Food and water were provided ad libitum. The animals were randomly divided into the following groups. […]
# Experimental Groups of Administering Positive Control and Test Compound 10 Minutes after Onset of Status Epilepticus • As a control, 13 mice intraperitoneally single administered with 30% PEG300 (vehicle) at a volume of 10 ml/kg • As a positive control, 12 mice intraperitoneally single administered valproic acid (VPA) at a dose of 200 mg/kg (10 ml/kg) • 13 Mice intraperitoneally single administered Test Compound at a dose of 25 mg/kg (10 ml/kg) Induction of Status Epilepticus
# Methylscopolamine was dissolved in a vehicle (0.9% saline) at a concentration of 1 mg/kg (10 m/kg) and administered subcutaneously to the back of the neck. After 30 minutes, pilocarpine was dissolved in a vehicle (0.9% saline) at a concentration of 320 mg/kg (10 ml/kg) and administered intraperitoneally.
# In the case of the drug-administered experimental groups 10 minutes after onset of status epilepticus, valproic acid and Test Compound were administered 10 minutes after onset of status epilepticus. […]
# In the case of the drug-administered experimental groups 10 minutes after onset of status epilepticus, Test Compound was administered intraperitoneally at a dose of 25 mg/kg (10 ml/kg). At the same time point, valproic acid (positive control group) was administered intraperitoneally at a dose of 200 mg/kg (10 ml/kg). […]
# In the case of the drug-administered experimental groups 10 minutes after onset of status epilepticus, the effects of the compound were represented as the mean±standard error, and statistical significance was recognized when there was a difference of p<0.05 in data using one-way ANOVA and a Tukey's test as a post-hoc test.
# [2] = test system: low Mg2+-induced seizure-like events (SLEs) in CA1 pyramidal neurons of hippocampal slices; test: Whole-cell patch-clamp model of low Mg2+-induced seizure-like events in mouse hippocampal slices; format: cell-based; details: for Duration of SLE in comparison with before treatment of Test Compound, during treatment / Number of SLE in comparison with before treatment of Test Compound, during treatment: 100 μM; for Duration of SLE in comparison with before treatment of Test Compound, during treatment / Number of SLE in comparison with before treatment of Test Compound, during treatment / Duration of SLE in comparison with before treatment of Test Compound, after washing / Number of SLE in comparison with before treatment of Test Compound, after washing: mean±standard error; for Duration of SLE in comparison with before treatment of Test Compound, after washing / Number of SLE in comparison with before treatment of Test Compound, after washing: after washout of 100 μM
# Experimental: Male mice (C57BL/6, 24-26 g) were used. The experimental animals were housed under a 12-hour light/dark cycle (lighting from 7 pm to 7 am) and maintained at a temperature of 22-25° C. and about 40 to 60% relative humidity. Food and water were provided ad libitum.
# For whole-cell patch-clamp recording, the brain of the mouse was excised, and the hippocampal slices ([…]) were prepared with oxygenated artificial cerebrospinal fluid (ACSF) (124 mM NaCl, 3.0 mM KCl, 1.23 mM NaH2PO4, 2.2 mM CaCl2, 1.2 mM MgCl2, 26 mM NaHCO3, and 10 mM glucose, pH 7.4). All experiments were performed in visually guided CA1 pyramidal neurons, and a glass pipette (4-5 MΩ) was used for recording. After incubating the tissue for 1 hour, a single slice was submerged in a recording chamber and continuously superfused with oxygenated artificial cerebrospinal fluid (32° C.; 95% O2/5% CO2).
# For low Mg^2+-induced seizure-like events (SLEs) measurement, 0 mM MgCl2 and 5.0 mM KCl were used. SLEs were defined by more than three spikes in a burst. Whole-cell patch-clamp currents were digitized with a MultiClamp 700B amplifier and a Digidata 1440 (Axon Instruments, CA), and the acquired data were analyzed with the pCLAMP version 10.2 (Axon Instruments) and the Mini Analysis Program (Synaptosoft).
# Early SLEs (immediately after onset of SLEs): measurement of SLEs observed 20-30 minutes after the application of low Mg^2+ ACSF.
# Late SLEs (after 1 hour incubation in low Mg^2+ ACSF): measurement of SLEs observed immediately after whole-cell rupture.
# The treatment of the compound for measuring the effect of Test Compound was initiated 10-15 minutes after the occurrence of SLEs.
# The effect of Test Compound was a comparison value (%) to the SLE value that occurred after the treatment of low Mg^2+ ACSF and before the treatment of Test Compound, and was represented as the mean±standard error. When there was a difference of p<0.05 in data by using Student's t-test, statistical significance was recognized.
# [3] = Early SLE, treatment started 10-15 min after occurrence of SLE, n=5
# [4] = Early and late SLEs, 100 μM treated 10-15 minutes after occurrence of SLE, compared to after washing
# [5] = Late SLE (after 1 hour in low Mg2+ ACSF), n=8
# [6] = Drug administration 10 min after onset of status epilepticus, 200 mg/kg i.p., observed 50 min, mean±standard error
Structure (SMILES),"Mortality, result in words ([1]; 20 mg/kg i.p. immediately after occurrence of status epilepticus, compared to the control group)","Mortality ([1]; Drug administration 10 min after onset of status epilepticus, 25 mg/kg i.p.) [%]","Mortality ([1]; Drug administration immediately after onset of status epilepticus, 20 mg/kg i.p.) [%]","Duration of SLE in comparison with before treatment of Test Compound, during treatment [2, 3] [%]","Number of SLE in comparison with before treatment of Test Compound, during treatment [2, 3] [%]","Duration of SLE in comparison with before treatment of Test Compound, after washing ([2]; Early SLE, n=5) [%]","Number of SLE in comparison with before treatment of Test Compound, after washing ([2]; Early SLE, n=5) [%]","Duration of SLE, result in words [2, 4]","Number of SLE, result in words [2, 4]","Duration of SLE in comparison with before treatment of Test Compound, during treatment [2, 5] [%]","Number of SLE in comparison with before treatment of Test Compound, during treatment [2, 5] [%]","Duration of SLE in comparison with before treatment of Test Compound, after washing ([2]; Late SLE, n=8) [%]","Number of SLE in comparison with before treatment of Test Compound, after washing ([2]; Late SLE, n=8) [%]","Mortality ([1]; Drug administration 10 min after onset of status epilepticus, 200 mg/kg i.p.) [%]","Seizure count [1, 6]","Seizure score (modified Racine score) [1, 6]"
"NC(=O)O[C@@H](Cn1ncnn1)c1ccccc1Cl [Test Compound, Carbamic acid (R)-1-(2-chlorophenyl)-2-tetrazol-2-yl-ethyl ester]",tendency to suppress mortality,0,0,15.39 ± 6.82,31.45 ± 16.13,83.63 ± 5.14,91.99 ± 16.47,significantly reduced,significantly reduced,42.61 ± 3.50,62.12 ± 5.59,81.81 ± 13.78,92.36 ± 8.21,,,
"CCCC(CCC)C(=O)O [Positive control group, valproic acid, reference compound]",,,,,,,,,,,,,,14,0.8 ± 0.18,3.2 ± 0.39
